According to DBAASP:
Converted amounts (≈) assume the structure as drawn.

Columns and labels:
Experiment in all cases: ≥ marks a high value that may be exact or a test limit, other limits are often not marked, values filed in µg/mL are converted to µM
Pseudomonas aeruginosa = tested on: Pseudomonas aeruginosa
Micrococcus luteus = tested on: Micrococcus luteus
Staphylococcus aureus = tested on: Staphylococcus aureus
Shigella dysenteriae = tested on: Shigella dysenteriae
Bacillus subtilis = tested on: Bacillus subtilis
Proteus mirabilis = tested on: Proteus mirabilis
Klebsiella pneumoniae = tested on: Klebsiella pneumoniae
Escherichia coli = tested on: Escherichia coli
[1] = tested on: Staphylococcus epidermidis
Salmonella typhimurium = tested on: Salmonella typhimurium
[2] = tested on: Shigella dysenteriae ATCC 9752
[3] = tested on: Pseudomonas aeruginosa ATCC 27853
[4] = tested on: Staphylococcus aureus ATCC 6538P
[5] = tested on: Klebsiella pneumoniae ATCC 10031
[6] = tested on: Staphylococcus epidermidis ATCC 12228
[7] = tested on: Salmonella enterica subsp. enterica serovar Typhimurium ATCC 14028
[8] = tested on: Escherichia coli ATCC 25922
[9] = tested on: Bacillus subtilis ATCC 6633
Escherichia coli SBS 363 = tested on: Escherichia coli SBS 363
[10] = tested on: Staphylococcus aureus ATCC 29213
Escherichia coli JW0013 = tested on: Escherichia coli JW0013

Row | MIC (Pseudomonas aeruginosa) | MIC (Micrococcus luteus) | MIC (Staphylococcus aureus) | MIC (Shigella dysenteriae) | MIC (Bacillus subtilis) | MIC (Proteus mirabilis) | MIC (Klebsiella pneumoniae) | MIC (Escherichia coli) | MIC [1] | MIC (Salmonella typhimurium) | SMILES | further results
1 | 167 µM (≈ 200 µg/mL) | 10.5 µM (≈ 12.5 µg/mL) | 20.9 µM (≈ 25 µg/mL) | ≥ 83.7 µM | 20.9 µM (≈ 25 µg/mL) | ≥ 167 µM | 167 µM (≈ 200 µg/mL) | 83.7 µM (≈ 100 µg/mL) | ≥ 83.7 µM | ≥ 167 µM | CC(C)C[C@H](NC(=O)[C@H](C)NC(=O)CNC(=O)[C@H](CC(C)C)NC(=O)[C@@H](N)Cc1ccccc1)C(=O)N[C@@H](Cc1ccccc1)C(=O)N[C@@H](CCCCN)C(=O)N[C@@H](CC(C)C)C(=O)N[C@@H](C)C(=O)N[C@@H](CO)C(=O)N[C@@H](CCCCN)C(=O)O [FLGALFKLASK] | –
2 | > 159 µM | 9.95 µM (≈ 12.5 µg/mL) | 9.95 µM (≈ 12.5 µg/mL) | ≥ 79.6 µM | 9.95 µM (≈ 12.5 µg/mL) | ≥ 159 µM | 79.6 µM (≈ 100 µg/mL) | 79.6 µM (≈ 100 µg/mL) | ≥ 39.8 µM | ≥ 159 µM | CC(C)C[C@H](NC(=O)[C@H](Cc1ccccc1)NC(=O)CNC(=O)[C@H](CC(C)C)NC(=O)[C@@H](N)Cc1ccccc1)C(=O)N[C@@H](Cc1ccccc1)C(=O)N[C@@H](CCCCN)C(=O)N[C@H](C(=O)N[C@@H](C)C(=O)N[C@@H](CO)C(=O)N[C@@H](CCCCN)C(=O)O)C(C)C [FLGFLFKVASK] | –
3 | 77.2 µM (≈ 100 µg/mL) | 19.3 µM (≈ 25 µg/mL) | 2.39 µM (≈ 3.1 µg/mL) | 9.65 µM (≈ 12.5 µg/mL) | 4.86 µM (≈ 6.3 µg/mL) | ≥ 154 µM | 9.65 µM (≈ 12.5 µg/mL) | 19.3 µM (≈ 25 µg/mL) | 9.65 µM (≈ 12.5 µg/mL) | ≥ 38.6 µM | CC(C)C[C@H](NC(=O)[C@H](Cc1c[nH]c2ccccc12)NC(=O)CNC(=O)[C@H](CC(C)C)NC(=O)[C@@H](N)Cc1ccccc1)C(=O)N[C@@H](Cc1ccccc1)C(=O)N[C@@H](CCCCN)C(=O)N[C@H](C(=O)N[C@@H](C)C(=O)N[C@@H](CO)C(=O)N[C@@H](CCCCN)C(=O)O)C(C)C [FLGWLFKVASK] | –
4 | > 141 µM | ≥ 141 µM | > 141 µM | ≥ 141 µM | ≥ 141 µM | ≥ 141 µM | > 141 µM | > 141 µM | ≥ 141 µM | ≥ 141 µM | CC(C)C[C@H](NC(=O)[C@@H](NC(=O)[C@H](CCCCN)NC(=O)[C@H](CO)NC(=O)[C@H](C)NC(=O)[C@@H](NC(=O)[C@H](CCCCN)NC(=O)[C@H](Cc1ccccc1)NC(=O)[C@@H](N)CC(C)C)C(C)C)C(C)C)C(=O)N1CCC[C@H]1C(=O)N[C@@H](CO)C(=O)N[C@H](C(=O)N[C@@H](CCCCN)C(=O)O)C(C)C [LFKVASKVLPSVK] | –
5 | – | – | – | – | – | – | – | – | – | – | CC(C)C[C@H](NC(=O)[C@H](CC(C)C)NC(=O)[C@H](Cc1c[nH]c2ccccc12)NC(=O)[C@H](CCCCN)NC(=O)[C@H](CC(C)C)NC(=O)[C@@H](N)CC(C)C)C(=O)N[C@@H](CCCCN)C(N)=O [LLKWLLK] | MIC [2]: ≥ 110 µM; MIC [3]: 110 µM (≈ 99.9 µg/mL); MIC [4]: 27.4 µM (≈ 25 µg/mL); MIC [5]: ≥ 219 µM; MIC [6]: 110 µM (≈ 99.9 µg/mL); MIC [7]: 219 µM (≈ 200 µg/mL); MIC [8]: 110 µM (≈ 99.9 µg/mL); MIC [9]: 27.4 µM (≈ 25 µg/mL)
6 | – | ≥ 100 µM | – | – | – | – | – | – | – | – | CC[C@H](C)[C@@H]1NC(=O)[C@H](CO)NC(=O)[C@H](CCCCN)NC(=O)[C@@H]2CSSC[C@@H](C(=O)N[C@@H](CC(=O)O)C(=O)NCC(=O)N[C@@H](CCC(N)=O)C(=O)N[C@H](C(=O)N[C@H](C(=O)N[C@H](C(=O)N[C@@H](CC(N)=O)C(=O)N[C@@H](CO)C(=O)N[C@H]3CSSC[C@@H]4NC(=O)[C@H](CCCN=C(N)N)NC(=O)CNC(=O)[C@H](Cc5ccccc5)NC(=O)[C@H](CCCCN)NC(=O)[C@H](CCCN=C(N)N)NC(=O)[C@H](CCCCN)NC(=O)[C@H](CSSC[C@@H](C(=O)N[C@@H](Cc5ccccc5)C(=O)N[C@@H](Cc5ccccc5)C(=O)O)NC(=O)[C@H](CCC(=O)O)NC(=O)[C@H]([C@@H](C)O)NC(=O)[C@H]([C@@H](C)CC)NC(=O)[C@H](Cc5ccccc5)NC(=O)CNC(=O)[C@H](CC(=O)O)NC(=O)[C@H](CO)NC4=O)NC(=O)[C@H](CC(=O)O)NC(=O)[C@H](CCC(=O)O)NC3=O)[C@@H](C)CC)[C@@H](C)O)[C@@H](C)O)NC(=O)[C@H](CO)NC(=O)[C@H](C(C)C)NC(=O)CNC(=O)[C@H](CCCCN)NC(=O)[C@H](CCCN=C(N)N)NC(=O)[C@H](CC(N)=O)NC(=O)[C@H](CC(C)C)NC(=O)[C@H](Cc3ccc(O)cc3)NC(=O)CNC(=O)[C@H](Cc3ccc(O)cc3)NC(=O)CNC(=O)[C@H](CSSC[C@H](NC(=O)[C@@H](NC(=O)[C@@H]3CCCN3C(=O)[C@H](C)NC(=O)[C@H](Cc3ccc(O)cc3)NC(=O)[C@H](C)NC(=O)[C@H](Cc3ccccc3)NC(=O)[C@@H](NC(=O)[C@@H](N)CCSC)C(C)C)[C@@H](C)O)C(=O)N[C@@H](C)C(=O)N[C@@H](CCCN=C(N)N)C(=O)N2)NC(=O)[C@H](Cc2ccc(O)cc2)NC(=O)[C@H](CCCN=C(N)N)NC(=O)[C@H](C)NC(=O)CNC1=O [MVFAYAPTCARCKSIGARYCGYGYLNRKGVSCDGQTTINSCEDCKRKFGRCSDGFITECFF] | MIC (Escherichia coli SBS 363): ≥ 35.4 µM
7 | – | – | – | – | – | – | – | – | – | – | CC[C@H](C)[C@H](NC(=O)[C@H](C)NC(=O)[C@H](CCC(N)=O)NC(=O)[C@H](Cc1cnc[nH]1)NC(=O)CNC(=O)[C@H](CCSC)NC(=O)[C@@H]1CCCN1C(=O)[C@H](CCCN=C(N)N)NC(=O)CNC(=O)[C@@H]1CSSC[C@@H]2NC(=O)[C@H](CC(N)=O)NC(=O)[C@H](Cc3cnc[nH]3)NC(=O)[C@H](CCCCN)NC(=O)[C@H](CC(=O)O)NC(=O)[C@H](CC(N)=O)NC(=O)[C@H]([C@@H](C)O)NC(=O)[C@@H]3CSSC[C@H](NC(=O)[C@H](CCCCN)NC(=O)[C@H](CC(C)C)NC(=O)[C@H](CCCCN)NC(=O)[C@H](Cc4ccccc4)NC(=O)[C@H](CC(C)C)NC(=O)CNC(=O)[C@H](CCCCN)NC(=O)[C@H](CCCN=C(N)N)NC(=O)[C@H](CSSC[C@H](NC(=O)[C@@H](N)CO)C(=O)N[C@@H]([C@@H](C)CC)C(=O)N4CCC[C@H]4C(=O)N[C@@H](CCCCN)C(=O)N[C@@H](Cc4cnc[nH]4)C(=O)N[C@@H](CCC(=O)O)C(=O)N[C@@H](CCC(=O)O)C(=O)N3)NC2=O)C(=O)N[C@@H](CCC(N)=O)C(=O)N[C@H]2CSSC[C@H](NC(=O)[C@H](CCCN=C(N)N)NC(=O)[C@H](CCC(=O)O)NC(=O)[C@H]([C@@H](C)O)NC(=O)[C@@H]3CCCN3C(=O)[C@H](CCC(N)=O)NC(=O)CNC(=O)[C@H](CO)NC(=O)[C@H](CCC(=O)O)NC(=O)[C@H](CC(=O)O)NC(=O)[C@H](CC(=O)O)NC(=O)[C@H](Cc3ccccc3)NC(=O)[C@H]([C@@H](C)O)NC(=O)[C@H](CO)NC2=O)C(=O)N[C@@H](C)C(=O)N1)C(=O)N[C@@H](CCC(=O)O)C(=O)N[C@H](C(=O)NCC(=O)N[C@@H](CC(C)C)C(=O)N[C@@H](CC(N)=O)C(=O)N[C@H](C(=O)N[C@@H](Cc1ccccc1)C(=O)N[C@@H](CCCN=C(N)N)C(=O)NCC(=O)N[C@@H](CC(C)C)C(=O)N[C@@H](Cc1ccccc1)C(=O)N[C@@H](CCCCN)C(=O)NCC(=O)N[C@@H](CCCCN)C(=O)N[C@@H](CCCCN)C(=O)N[C@@H](CCCCN)C(=O)N[C@@H](CC(N)=O)C(=O)N[C@@H](CCCCN)C(=O)N[C@@H](CCCCN)C(=O)N[C@H](C(=O)N[C@@H](CCCCN)C(N)=O)[C@@H](C)O)[C@@H](C)CC)[C@@H](C)O [SCIPKHEECTNDKHNCCRKGLFKLKCQCSTFDDESGQPTERCACGRPMGHQAIETGLNIFRGLFKGKKKNKKTK] | MIC (Escherichia coli SBS 363): 22.1 µM (≈ 185 µg/mL); MIC [10]: > 250 µM
8 | – | – | – | – | – | – | – | – | – | – | CC[C@H](C)[C@H](NC(=O)[C@H](CCCN=C(N)N)NC(=O)[C@H](CCCN=C(N)N)NC(=O)[C@@H]1CCCN1C(=O)[C@@H]1CCCN1C(=O)[C@H](CCCN=C(N)N)NC(=O)[C@@H]1CCCN1C(=O)[C@@H](NC(=O)[C@@H]1CCCN1C(=O)[C@H](CC(C)C)NC(=O)[C@H](Cc1ccc(O)cc1)NC(=O)[C@@H]1CCCN1C(=O)[C@@H]1CCCN1C(=O)[C@H](CCCCN)NC(=O)[C@H](CC(=O)O)NC(=O)[C@@H](N)C(C)C)[C@@H](C)O)C(=O)N[C@@H](Cc1ccc(O)cc1)C(=O)N[C@@H](CC(N)=O)C(=O)N[C@@H](CCCN=C(N)N)C(N)=O [VDKPPYLPTPRPPRRIYNR] | MIC (Escherichia coli JW0013): 2.06 µM (≈ 4.8 µg/mL)
9 | – | – | – | – | – | – | – | – | – | – | CC[C@H](C)[C@H](NC(=O)[C@H](CCCN=C(N)N)NC(=O)[C@H](CCCN=C(N)N)NC(=O)[C@@H]1CCCN1C(=O)[C@@H]1CCCN1C(=O)[C@H](CCCN=C(N)N)NC(=O)[C@H](CCCN=C(N)N)NC(=O)[C@H](CCCN=C(N)N)NC(=O)[C@@H]1CCCN1C(=O)[C@H](CCCN=C(N)N)NC(=O)[C@H](Cc1ccc(O)cc1)NC(=O)[C@@H]1CCCN1C(=O)[C@H](CCCN=C(N)N)NC(=O)[C@H](CCCCN)NC(=O)[C@H](CC(=O)O)NC(=O)[C@@H](N)C(C)C)C(=O)N[C@@H](Cc1ccc(O)cc1)C(=O)N[C@@H](CC(N)=O)C(=O)N[C@@H](CCCN=C(N)N)C(N)=O [VDKRPYRPRRRPPRRIYNR] | MIC (Escherichia coli JW0013): 0.941 µM (≈ 2.4 µg/mL)
